From patent US6586403B1, “Treating allergic reactions and inflammatory responses with tri-and dipeptides” (Salpep Biotechnology, Inc., priority 2000, dated 2003)
Ends that are not written are not given here.

Assays:
Sprague Dawley rats = assay: Intestinal motility disturbances (MMC disruption) caused by intravenous endotoxin; type: in vivo, rat
Procedure: Intravenous injection of LPS at either 10 or 20 μg/kg disrupted the normal fasting pattern of intestinal MMCs into the characteristic fed pattern which persisted for 85±3 min (n=3) and 105±8 min (n=15), respectively. The disruptions in the MMCs developed within 20±4 min and 17±1 min for the respective 10 and 20 μg/kg doses of LPS. The 20 μg/kg dose of LPS was used for subsequent experiments.
Intestinal Motility. Male and female Sprague Dawley rats, weighing 200-250 g were raised at the Life and Environmental Sciences Animal Resource Centre, The University of Calgary. The rats were maintained with lights on from 7:00 to 19:00 h, and were provided food and water ad libitum. For the intestinal motility experiments lipopolysaccharide (LPS; Salmonella typhosa; Sigma Chemical Co., St. Louis, […].) was injected intravenously at a dose of 20 μg/kg (Helistrom et al, 1997).
For motility recording rats were surgically prepared, as previously described (Mathison et al, 1998), with three bipolar jejunal electrodes under halothane anesthesia following an 18 h fast. A plastic cannula, with three pairs of Teflon-coated stainless steel bipolar electrodes, was positioned in an intrascapular region. The wires were subcutaneously tunnelled to the anterior abdominal wall, entering the peritoneal cavity through a stab incision. […] An eight-channel chart recorder (Hewlett-Packard, model 7858A) simultaneously recorded the electric signals generated by the migrating myoelectric complexes (MMCs), for three cycles before and 120 min after intravenous challenge with 20 μg/kg of LPS. […]
Changes in intestinal motility were detected by modifications in jejunal myoelectric activity from the standard MMCs that occur in fasting animals to a totally disrupted pattern of intense, irregular myoelectric electricity that developed with the endotoxic reaction. Before and after challenge with LPS, the cycle period of MMCs was determined by measuring the time between the ends of phase III activity (the marked increase in regular phasic myoelectric and motor activity) of successive MMCs.

[1] = doses as low as 1 μg/kg; cited from earlier work
leukocytes = conditions: in vivo; cited from earlier work
sensitized rat ileum = assay: Antigen induced contraction of the sensitized rat ileum (intestinal anaphylaxis in vitro); type: cell-based; conditions: 10 ig of peptide in bath, 10 min, then 1 mg OA (FIG. 1)
Procedure: The Biological Response. The addition of antigen (OA) induced a slow tonic contraction of the intestinal (ileal) segments which peaked within 2 to 3 minutes before slowly receding to the baseline tension over 4 to 5 minutes. Urecholine (URE) produced a rapid tonic contraction that reached its maximum in 10 to 15 seconds. […] When FEG was added to the bath the OA/URE ratio was only 0.12±0.04, or 44% of the control response.
Effects of C-terminus substitutions, N-terminus substitutions, aromatic substitution at position 1, and Asp substitution at position 2 in both L and D forms in FEG, and removal of the glycine on inhibition of intestinal anaphylaxis in vitro.
In this in vitro motility study analogues of the tripeptide FEG were examined for their inhibitory effects on an anaphylactic reaction provoked by antigen on intestinal segments isolated from ovalbumin sensitized rats. […] Four to six weeks following sensitization, the terminal ileum was excised and 2 cm sections were mounted in 20 ml organ baths under 0.75 g of tension and the isometric force generated by OA and urecholine (Frosst, Kirkland, QC) was measured using a Grass Force Displacement Transducer FT03 (Quincy, Mass.). […] Anti-anaphylactic properties of FEG and its analogues were determined by adding 10 ig of peptide to a bath and incubating for 10 min. […] OA contractile response was measured at peak contraction. […]

CD16b [2] = assay: PAF induced CD16b expression on human neutrophils detected by CD16b.FITC; type: cell-based; conditions: 10-11M peptide; PAF 10^-9M (FIG. 11)
Procedure: (§1) The expression of CD11b and CD16b on the surface of neutrophils are represented as the difference in the mean fluorescence intensity (MFI) measured in cells incubated in the presence of PAF alone and those incubated with 10-11M concentration of peptide and PAF. Many of the tripeptides reduced the expression of CD11b and CD16b on human neutrophils that had been stimulated with platelet activating factor (PAF; 10^-9M).
(§2) Leukocytes were isolated from the blood of normal healthy volunteers. The blood (20 ml) was brought to a final volume of 50 ml with cold lysis buffer (155 mM NH4Cl, 10 mM KHCO3, 1 mM disodium EDTA, pH 7.4). […]
(§3) Once isolated the neutrophils were prepared to a final concentration of […] in phosphate buffered saline (PBS). […] The supernatant is decanted off carefully and 300 μl of PBS is added to the neutrophils and cells are read with a Fluorescence Activated Cell Sorter (FACS).
(§4) The effects of the peptides on CD11b or CD16b expression were evaluated by determining the changes in mean fluorescence intensity (MFI) of cells incubated in the presence of peptide and PAF and the those incubated in presence of PAF alone, after subtracting the background (Control) MFI expressed in cells incubated with neither PAF nor a peptide. […]

CD16b [3] = assay: PAF induced CD16b expression on human neutrophils detected by CD16a.FITC; type: cell-based; conditions: 10-11M peptide; PAF 10^-9M (FIG. 11)
Procedure: as §1, §2, §3, §4

TDIFEGG [SGP-T]
duration of MMC disruption (Sprague Dawley rats; intravenous dose of 350 μg/kg): significantly reduced
duration of LPS disrupted intestinal MMCs (Sprague Dawley rats; intravenous, 100 μg/kg, 20 min before LPS 20 μg/kg iv): ineffective
lipopolysaccharide induced hypotension [1]: inhibits
rolling of leukocytes on mesenteric venules induced by LPS and histamine (leukocytes): prevents

H-D-cha-D-glu-OH [(cha)e]
biological activity: inhibition of antigen induced contraction of the ileum (sensitized rat ileum): active
CD16b expression detected by CD16b.FITC (CD16b [2]): reduced

H-D-phe-D-glu-Gly-NH2 [feG(NH2)]
inhibition of LPS induced disruption of the MMCs, dose response (Sprague Dawley rats; FIG. 3b): very potent
CD16b expression detected by CD16a.FITC (CD16b [3]): reduced

H-D-cha-D-glu-NH2 [(cha)e(NH2)]
CD16b expression detected by CD16a.FITC (CD16b [3]): reduced
